Consider 4 molecules from US6733998B1, “Micromonospora echinospora genes coding for biosynthesis of calicheamicin and self-resistance thereto” (priority 1998, dated 2004).

For experiment [1], the system named is E. coli. Nature of the experiment: Growth of cosmid/plasmid-carrying clones on LB plates containing calicheamicin (maximum tolerated concentration). It counts as cell-based. Conditions: for Maximum tolerated concentration of calicheamicin: LB plates. How it is done:
To isolate the gene(s) responsible for calicheamicin resistance in Micromonospora, clones conferring calicheamicin resistance were selected by growth of a Micromonospora genomic bifunctional cosmid library on LB plates containing ampicillin (50 μg ml^−1) and calicheamicin (0.25 μg ml^−1). […] Restriction mapping of these clones localized the desired phenotype to a ˜2kb PstI-SacI fragment of DNA. (FIG. 2). Maximum tolerated concentrations of calicheamicin on the LB plates was ascertained. The results are as follows:
The proximal 1 kb of this fragment carried the single orf calD while the distal 1 kb presented orf calC. […] Therefore, it was hypothesized that calD was not responsible for calicheamicin resistance. To rule out calD as being responsible for calicheamicin resistance, a subclone was engineered (pJT1224) to contain an intact calD, but the truncated calC gene. This subclone was not able to confer resistance to calicheamicin. Next, a subclone containing the calC region was constructed (pJT1232). This clone conferred calicheamicin resistance, as indicated in the above chart.
To ascertain the amino acid sequence of CalC and learn its properties, calC was cloned into a pMAL-C2 vector. (pMAL-C2 by itself could not confer calicheamicin resistance. See above chart.) The resulting plasmid, pRE7, which contained calC, conferred resistance to calicheamicin. See above chart. Plasmid pRE7 was then induced with isopropyl Beta-D-thiogalactoside (“IPTG”) to overexpress CalC. Induced pRE7 conferred resistance to calicheamicin and produced a maltose-binding protein CalC fusion protein (mbp-CalC). This resulting overexpression of CalC increased calicheamicin resistance 10^2-fold in vivo. See above chart.

Experiment [2] relates to E. coli. Nature of the experiment: Calicheamicin resistance on transgenic expression of calC in E. coli. Format: cell-based. The source says: (§1) DNA containing calC was cloned into an inducible vector, using known methods, resulting in overexpression of calC. The polypeptide product (CalC) was then isolated and purified to homogeneity. […] Another aspect of the invention is an expression vector containing calC or a fragment of calC coding for a bioactive molecule. There is also provided a transformed host cell, preferably bacteria, more preferably E. coli, containing calC or a fragment of calC coding for a bioactive molecule. Such transgenic expression of calC results in an 10^5-fold increase in calicheamicin resistance in E. coli, a 100-fold increase in resistance in S. lividans, and a 50-fold increase in resistance in yeast.

The subject of a further experiment is S. lividans. Nature of the experiment: Calicheamicin resistance on transgenic expression of calC in S. lividans. Format: cell-based.
Description: as §1

Another experiment deals with yeast. In words: Calicheamicin resistance on transgenic expression of calC in yeast. Format: cell-based.
Description: as §1

A further experiment relates to HT1080 (human) cell line. In words: Calicheamicin resistance on transgenic expression of calC in HT1080 cell line. It counts as cell-based. The source says: The present invention provides for the transformation of human cells with the calC gene. The transgenic expression of calC in the HT1080 (human) cell line increased its resistance to calicheamicin 10-fold. This technique allows bone marrow cells, for example, to be removed from a patient being treated with calicheamicin, and for these cells to be transformed with calC, and for the transformed cells to be returned to the patient. This allows the patient to tolerate treatment with calicheamicin or allows the patient to receive higher doses of calicheamicin as the returned human-calC-transformed cells have calicheamicin resistance. The transformation is performed by methods known in the art. The embodiment of the invention would be applicable to many diseases being treated with calicheamicin.

Experiment [3] relates to supercoiled pBlusecript plasmid DNA. Nature of the experiment: In vitro calicheamicin-induced DNA cleavage assay (agarose gel). Format: biochemical. The procedure: To test this theory, preliminary assays were performed with supercoiled pBlusecript plasmid DNA (“pBS”) as the template, and dithiothreitol (“DTT”) as the reductive initiator. In a typical assay, purified mbp-CalC (15.0 nM) and 30.0 nM calicheamicin were preincubated for 15 min. in a total volume of 25 μL 40 mM Tris-Cl, pH 7.5, at 37° C. Then 2.5 μL 10 mM DTT stock solution was added to the assay solution, and the assay was incubated an additional 1 hour at 37° C. DNA fragmentation was assessed by electrophoresis on a 1% agarose gel stained with ethidium bromide.
Reconstitution of apo-mbp-CalC was accomplished by preincubation with 1 mM FeSO4 (Fe^+2) or FeCl3 (Fe^+3) prior to the activity assay as previously described.

Experiment [4] concerns break light A (calicheamicin recognition sequence 5′-TCCT-3′). Nature of the experiment: Molecular break light assay, break light A. It counts as biochemical. Conditions: for Maximum fluorescence obtained upon cleavage of break light A: excess DTT. From the text:
(§2) The invention further provides for a method of assaying the calicheamicin-induced DNA cleavage and its CalC-mediated inhibition using the molecular break light assay. Two molecular break lights (MLBs) for the experiments are described in example 7. Break light A is comprised of a 10-base pair stem which contained the known calicheamicin recognition sequence 5′-TCCT-3′, while break light B carries the BamHI endonuclease recognition sequence 5′-GGATCC-3′. The 5′-fluorophore of both probes was fluorescein (FAM, absorbancemax=485 nm, emissionmax=517 nm) while the corresponding 3′-quencher was 4-(4′-dimethylaminophenylazo)benzoic acid (DABCYL). Generally, MLBs operate by a separation of the fluorophore-quencher pair resulting a corresponding fluorescent signal.
(§3) The invention further provides for a method of assaying the calicheamicin-induced DNA cleavage and its CalC mediated inhibition using the molecular break light assay. Break light A was comprised of a 10-base pair stem which contained the known calicheamicin recognition sequence 5′-TCCT-3′, while break light B carried the BamHI endonuclease recognition sequence 5′-GGATCC-3′. […] The loop of both probes consisted of a T4 loop to ensure non-hybridizing interactions. The 5′-fluorophore of both probes was fluorescein (FAM, absorbancemax=485 nm, emissionmax=517 nm) while the corresponding 3′-quencher was 4-(4′-dimethylaminophenylazo)benzoic acid (DABCYL). Previous studies have shown DABCYL to serve as a universal quencher in molecular beacons and there is significant spectral overlap (1.02×10^−15 M^−1 cm^3) between the emission spectrum of FAM and the absorption spectrum of DABCYL.
Enzymalic Cleavage as Proof of Principle. […] Specifically, only break light B should cleave in the presence of the restriction endonuclease BamHI while both A and B should be digested by the non-specific nuclease DNaseI. […] In comparison, control samples containing break lights alone or break lights in the presence of BSA gave no change in fluorescence over >2 hr at 37° C. Given the lack of fluorescence in the absence of enzyme, the designed break lights show no appreciable melting at the designated assay temperature.
Enediyne-Catalyzed Cleavage. Previous assays for enediyne cleavage of DNA relied upon discontinuous assays using radioactive DNA probes, electrophoresis and subsequent phosphoimager analysis. In contrast, by using break lights one can directly follow the extent of DNA cleavage by a specific enediyne in real time with high sensitivity. […] Under the conditions described, this assay allows the detection of 1 in the pM range. This sensitivity compares to that of the biochemical induction assay (BIA), the method of choice in detecting DNA-damaging agents. […] This supports the view that the specificity of 1 is more dependent upon context and perhaps less so on DNA sequence. It should also be noted that 1 leads to predominately double-stranded cleavage while 2 provides single-stranded nicks and the current molecular break light assay can not distinguish these two phenomena.
CalC inhibits calicheamicin mediated DNA cleavage. […] 3.6 pM break light A is coincubated with 3.5 nM calicheamicin with increasing amounts of CalC (0.0 nm, 1.3 nm, 2.6 nm, 3.9 nm, 5.2 nm). Complete inhibition of calicheamicin is achieved with roughly 2-fold excess of CalC. CalC has no effect on esperamicin-induced cleavage of DNA (data not shown).

The subject of experiment [5] is break light B (BamHI recognition sequence 5′-GGATCC-3′). In words: Molecular break light assay, break light B. It counts as biochemical.
Description: as §2
as §3, with “Previous studies have shown DABCYL to serve as a universal quencher in molecular beacons and there is significant spectral overlap (1.02×10^−15 M^−1 cm^3) between the emission spectrum of FAM and the absorption spectrum of DABCYL.” left out
Enzymalic Cleavage as Proof of Principle. […] In comparison, control samples containing break lights alone or break lights in the presence of BSA gave no change in fluorescence over >2 hr at 37° C. Given the lack of fluorescence in the absence of enzyme, the designed break lights show no appreciable melting at the designated assay temperature.
Consistent with this finding, PAGE analysis of the reaction products confirmed the presence of a […] after excess treatment with BamHI which is completely degraded upon DNaseI digestion. As a result, the fluorescence maxium observed with excess BamHI was designated 100% cleavage for the BamHI kinetic studies described below. […]

The next experiment has as its system CalC. Nature of the experiment: Interaction of calicheamicin with CalC measured by CalC tryptophan fluorescence. Format: binding, Micromonospora echinospora. From the text: CalC has 5 tryptophan and no cysteine residues and is unaffected by the reductive activator dithiothreitol (DTT). As the concentration of calicheamicin (3) increases in the absence of DTT there is little change in the CalC Trp fluorescence intensity.

In the case of calicheamicin, the “Maximum tolerated concentration of calicheamicin” value with E. coli [1] (cosmids 3a, 4a, 10a, 13a, and 16a) is 0.5 µg/mL; in the experiment on E. coli [1] (induced pRE7 (IPTG)) it was 50.0 µg/mL; in the experiment with E. coli [1] (pJT1214 and pJT1232), 5.0 µg/mL; in the experiment with E. coli [1] (pJT1224, pAP6, Pre1, and control plasmids pUC18, pBluescript, and pMAL-C2), less than 0.01 µg/mL; in the experiment with E. coli [1] (pRE7 (calC in pMAL-C2)), 20.0 µg/mL. Further, in the experiment on E. coli [1] (induced pRE7, in vivo), the “Increase in calicheamicin resistance on overexpression of CalC” value is recorded as 10^2 fold. In addition, the figures for the “Increase in calicheamicin resistance on transgenic expression of calC” value with E. coli [2], in the experiment on S. lividans and in the experiment with yeast were 10^5 fold, 100 fold and 50 fold, respectively. Further, the “Increase in resistance to calicheamicin on transgenic expression of calC” value with HT1080 (human) cell line was 10 fold. For the same molecule, the DNA cleavage entry in experiment [3] (in the absence of DTT) is “no DNA cleavage”; in experiment [3] (in the presence of DTT and calicheamicin), “efficient cleavage”. For the same molecule, the “Maximum fluorescence obtained upon cleavage of break light A” value in experiment [4] (3.2 nM break light A, 37° C.) was “identical to that observed with DNaseI”. For the same molecule, the “Rate of cleavage of molecular break light B compared with break light A” value in experiment [5] is on record as “identical rate”. The “Binding to CalC (CalC Trp fluorescence intensity)” value in the experiment with CalC (addition of DTT to activate calicheamicin) is given as “increased binding”. Also, the “Change in CalC Trp fluorescence intensity” value in the experiment on CalC (increasing calicheamicin concentration, absence of DTT) was “little change”.

For esperamicin, the “Maximum fluorescence obtained upon cleavage of break light A” value in [4] (3.2 nM break light A, 37° C.) was “identical to that observed with DNaseI”.

B1: CalC: polypeptide conferring calicheamicin resistance, 181 amino acids, SEQ ID. NO. 2 (protein)
chain: MTQEKTAPAAKSTTTKSTAAKKPKPPNYDPFVRHSVTVKADRKTAFKTFLEGFPEWWPNNFRTTKVGAPLGVDKKGGRWYEIDEQGEEHTFGLIRKVDEPDTLVIGWRLNGFGRIDPDNSSEFTVTFVADGQKKTRVDVEHTHFDRMGTKHAKRVRNGMDKGWPTILQSFQDKIDEEGAKK
modifications: Bacteria
As for B1, the “Effect on esperamicin-induced cleavage of DNA” value in [4] is “no effect”. Further, in experiment [4] (3.6 pM break light A, 3.5 nM calicheamicin), the “Excess of CalC giving complete inhibition of calicheamicin-mediated DNA cleavage” value is “roughly 2 fold”. In addition, the “Inhibition of calicheamicin mediated DNA cleavage” value in [4] (CalC in a two-fold molar excess of calicheamicin) was “completely abolishes”.

B2: BamHI: restriction endonuclease (protein, UniProt P23940 1-213, looked up)
Type II restriction enzyme …: MEVEKEFITDEAKELLSKDKLIQQAYNEVKTSICSPIWPATSKTFTINNTEKNCNGVVPIKELCYTLLEDTYNWYREKPLDILKLEKKKGGPIDVYKEFIENSELKRVGMEFETGNISSAHRSMNKLLLGLKHGEIDLAIILMPIKQLAYYLTDRVTNFEELEPYFELTEGQPFIFIGFNAEAYNSNVPLIPKGSDGMSKRSIKKWKDKVENK
Regarding B2, the “Change of fluorescence over time” value in [4] (3.2 nM break light A, 37° C.) is on record as “no change”; in [5] (3.2 nM break light B, 37° C.), “increase of fluorescence”. For the same molecule, the “Fluorescence maximum intensity upon complete cleavage, relative to that observed with DNaseI” value in experiment [5] (same concentration of molecular break light) came out at 75%.
